Several values for one entry are separate records, joined by “and”; a condition that tells them apart may be missing. Equal entries are not always repeated.
Columns and labels:
[1] = cyclic voltammetry of substrate and product; type: physicochemical
Source text: Typically, in the test element, the enzyme and the substrate are in separate carbon-based layers. The respective carbon mixtures are applied to a conductive track of a support, for example in the close proximity of a reference electrode mixture connected to a second track. In this way, a miniaturized sensor is produced which is capable of working with a small sample of blood bridging the electrode areas. The mixtures are suitably applied by screen printing. Suitable enzymes and suitable substrates can be determined by routine experimentation. Bovine liver alkaline phosphatase is the preferred enzyme, and p-aminophenyl phosphate is the preferred substrate. Other candidate substrates include, for example naphthyl phosphate, and 4-ferrocenylaminophenyl phosphate. […] Furthermore the electrochemistry of p-aminophenol is in a potential region where there would be minimal interference from endogenous blood components.
Cyclic voltammograms of p-aminophenyl phosphate before and after incubation with alkaline phosphatase are shown in FIGS. 3 and 4, the lower voltammogram corresponding to post-incubation.

[2] = cited from earlier work
[3] = system: bovine liver alkaline phosphatase; conditions: particularly isozyme from bovine liver; cited from earlier work

Row | SMILES | E°' of reversible wave [1] | levels encountered in cases of toxicity [2] | inhibition of alkaline phosphatase isozymes [3]
1 | Nc1ccc(O)cc1 [p-aminophenol] | about -65 mV | – | –
2 | Cn1c(=O)c2[nH]cnc2n(C)c1=O [theophylline] | – | ≤ 60 μg/ml and ≤ 330 μM | very potent inhibitor

— patent US5124253A (Medisense, Inc., priority 1988, dated 1992)
